Test system: OVCAR-5 complex spheroids with HUVEC/MSC, viability, % test/control
Test: Anticancer human tumor OVCAR-5 cell line growth inhibition [AhR];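 note: spheroids exposed to compounds for 7 days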;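 for viability, T/C: 100% = DMSO vehicle control wells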
Details: for IC50: curve of first compound; for viability, T/C: stronger effect = lower value
How it was run: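 Complex tumor spheroids co-cultured with HUVEC and human MSC stroma; AhR antagonists tested in combination with standard-of-care and investigational agents. Top concentration at or near clinical Cmax (else 10 microM), half-log dilutions; growth expressed as percent test/control.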

[1] = second compound 0.1 µM, first compound 0.0316 µM
[2] = second compound 0.1 µM, first compound 0.1 µM
[3] = second compound 0.316 µM, first compound 0.0316 µM
[4] = second compound 0.316 µM, first compound 0.1 µM
[5] = second compound 1 µM, first compound 0.0316 µM
[6] = second compound 1 µM, first compound 0.1 µM
[7] = second compound 3.16 µM, first compound 0.0316 µM
[8] = second compound 3.16 µM, first compound 0.1 µM
[9] = second compound 10 µM, first compound 0.0316 µM
[10] = second compound 10 µM, first compound 0.1 µM

## Cn1ncnc1C1c2n[nH]c(=O)c3cc(F)cc(c23)NC1c1ccc(F)cc1 (stereo not given) + Cc1ccccc1N=Nc1ccc(NC(=O)c2ccnn2C)c(C)c1
Second compound 0.1 µM
  IC50: > 100 nM
Second compound 0.316 µM
  IC50: > 100 nM
Second compound 1 µM
  IC50: > 100 nM
Second compound 3.16 µM
  IC50: > 100 nM
Second compound 10 µM
  IC50: > 100 nM
Second compound 0.1 µM, first compound 0.000316 µM
  viability, T/C: 105%
Second compound 0.1 µM, first compound 0.001 µM
  viability, T/C: 107%
Second compound 0.1 µM, first compound 0.00316 µM
  viability, T/C: 101%
Second compound 0.1 µM, first compound 0.01 µM
  viability, T/C: 96.2%
[1]
  viability, T/C: 94.5%
[2]
  viability, T/C: 90.9%
Second compound 0.316 µM, first compound 0.000316 µM
  viability, T/C: 108%
Second compound 0.316 µM, first compound 0.001 µM
  viability, T/C: 110%
Second compound 0.316 µM, first compound 0.00316 µM
  viability, T/C: 104%
Second compound 0.316 µM, first compound 0.01 µM
  viability, T/C: 102%
[3]
  viability, T/C: 96.6%
[4]
  viability, T/C: 98.8%
Second compound 1 µM, first compound 0.000316 µM
  viability, T/C: 111%
Second compound 1 µM, first compound 0.001 µM
  viability, T/C: 113%
Second compound 1 µM, first compound 0.00316 µM
  viability, T/C: 111%
Second compound 1 µM, first compound 0.01 µM
  viability, T/C: 102%
[5]
  viability, T/C: 101%
[6]
  viability, T/C: 102%
Second compound 3.16 µM, first compound 0.000316 µM
  viability, T/C: 110%
Second compound 3.16 µM, first compound 0.001 µM
  viability, T/C: 116%
Second compound 3.16 µM, first compound 0.00316 µM
  viability, T/C: 118%
Second compound 3.16 µM, first compound 0.01 µM
  viability, T/C: 109%
[7]
  viability, T/C: 101%
[8]
  viability, T/C: 108%
Second compound 10 µM, first compound 0.000316 µM
  viability, T/C: 106%
Second compound 10 µM, first compound 0.001 µM
  viability, T/C: 105%
Second compound 10 µM, first compound 0.00316 µM
  viability, T/C: 102%
Second compound 10 µM, first compound 0.01 µM
  viability, T/C: 105%
[9]
  viability, T/C: 102%
[10]
  viability, T/C: 102%

## NS(=O)(=O)OCC1CC(n2ccc3c(NC4CCc5ccccc54)ncnc32)CC1O (stereo not given) + Cc1ccccc1N=Nc1ccc(NC(=O)c2ccnn2C)c(C)c1
Second compound 0.1 µM
  IC50: 201 nM
Second compound 0.316 µM
  IC50: 178 nM
Second compound 1 µM
  IC50: 141 nM
Second compound 3.16 µM
  IC50: 96.3 nM
Second compound 10 µM
  IC50: 94.6 nM
[1]
  viability, T/C: 96.4%
[2]
  viability, T/C: 66.9%
Second compound 0.1 µM, first compound 0.316 µM
  viability, T/C: 40.8%
Second compound 0.1 µM, first compound 1 µM
  viability, T/C: 16.2%
Second compound 0.1 µM, first compound 3.16 µM
  viability, T/C: 9.98%
Second compound 0.1 µM, first compound 10 µM
  viability, T/C: 10.5%
[3]
  viability, T/C: 88.3%
[4]
  viability, T/C: 63.3%
Second compound 0.316 µM, first compound 0.316 µM
  viability, T/C: 37.8%
Second compound 0.316 µM, first compound 1 µM
  viability, T/C: 14.3%
Second compound 0.316 µM, first compound 3.16 µM
  viability, T/C: 11.1%
Second compound 0.316 µM, first compound 10 µM
  viability, T/C: 9.31%
[5]
  viability, T/C: 82.5%
[6]
  viability, T/C: 55.6%
Second compound 1 µM, first compound 0.316 µM
  viability, T/C: 36.2%
Second compound 1 µM, first compound 1 µM
  viability, T/C: 14.2%
Second compound 1 µM, first compound 3.16 µM
  viability, T/C: 9.92%
Second compound 1 µM, first compound 10 µM
  viability, T/C: 9.81%
[7]
  viability, T/C: 66.6%
[8]
  viability, T/C: 47.7%
Second compound 3.16 µM, first compound 0.316 µM
  viability, T/C: 32.2%
Second compound 3.16 µM, first compound 1 µM
  viability, T/C: 12.7%
Second compound 3.16 µM, first compound 3.16 µM
  viability, T/C: 9.52%
Second compound 3.16 µM, first compound 10 µM
  viability, T/C: 8.47%
[9]
  viability, T/C: 69.5%
[10]
  viability, T/C: 47.7%
Second compound 10 µM, first compound 0.316 µM
  viability, T/C: 29.2%
Second compound 10 µM, first compound 1 µM
  viability, T/C: 11%
Second compound 10 µM, first compound 3.16 µM
  viability, T/C: 7.66%
Second compound 10 µM, first compound 10 µM
  viability, T/C: 7.56%

## Nc1ncn(C2CC(O)C(CO)S2)c(=O)n1 (stereo not given) + Cc1ccccc1N=Nc1ccc(NC(=O)c2ccnn2C)c(C)c1
Second compound 0.1 µM
  IC50: > 300 nM
Second compound 0.316 µM
  IC50: > 300 nM
Second compound 1 µM
  IC50: > 300 nM
Second compound 3.16 µM
  IC50: > 300 nM
Second compound 10 µM
  IC50: > 300 nM
Second compound 0.1 µM, first compound 0.000949 µM
  viability, T/C: 105%
Second compound 0.1 µM, first compound 0.003 µM
  viability, T/C: 108%
Second compound 0.1 µM, first compound 0.00949 µM
  viability, T/C: 105%
Second compound 0.1 µM, first compound 0.03 µM
  viability, T/C: 101%
Second compound 0.1 µM, first compound 0.0949 µM
  viability, T/C: 87.4%
Second compound 0.1 µM, first compound 0.3 µM
  viability, T/C: 79%
Second compound 0.316 µM, first compound 0.000949 µM
  viability, T/C: 113%
Second compound 0.316 µM, first compound 0.003 µM
  viability, T/C: 109%
Second compound 0.316 µM, first compound 0.00949 µM
  viability, T/C: 112%
Second compound 0.316 µM, first compound 0.03 µM
  viability, T/C: 106%
Second compound 0.316 µM, first compound 0.0949 µM
  viability, T/C: 86.5%
Second compound 0.316 µM, first compound 0.3 µM
  viability, T/C: 77.8%
Second compound 1 µM, first compound 0.000949 µM
  viability, T/C: 114%
Second compound 1 µM, first compound 0.003 µM
  viability, T/C: 115%
Second compound 1 µM, first compound 0.00949 µM
  viability, T/C: 113%
Second compound 1 µM, first compound 0.03 µM
  viability, T/C: 108%
Second compound 1 µM, first compound 0.0949 µM
  viability, T/C: 95%
Second compound 1 µM, first compound 0.3 µM
  viability, T/C: 82.5%
Second compound 3.16 µM, first compound 0.000949 µM
  viability, T/C: 112%
Second compound 3.16 µM, first compound 0.003 µM
  viability, T/C: 112%
Second compound 3.16 µM, first compound 0.00949 µM
  viability, T/C: 114%
Second compound 3.16 µM, first compound 0.03 µM
  viability, T/C: 110%
Second compound 3.16 µM, first compound 0.0949 µM
  viability, T/C: 95.6%
Second compound 3.16 µM, first compound 0.3 µM
  viability, T/C: 80%
Second compound 10 µM, first compound 0.000949 µM
  viability, T/C: 107%
Second compound 10 µM, first compound 0.003 µM
  viability, T/C: 111%
Second compound 10 µM, first compound 0.00949 µM
  viability, T/C: 108%
Second compound 10 µM, first compound 0.03 µM
  viability, T/C: 108%
Second compound 10 µM, first compound 0.0949 µM
  viability, T/C: 89.2%
Second compound 10 µM, first compound 0.3 µM
  viability, T/C: 78.8%

Reference: PubChem BioAssay AID1919015 (Molecular Pharmacology Branch, DTP, NCI, 2023)
